Measurements as given in patent publication US20240150362A1, “Substituted Pyrrolotriazines” (Molecure S.A., priority 2022, published 2024).
Counter-ions that a name gives are not always drawn.

Molecular target: T1, full-length USP7 (Homo sapiens, UniProt Q93009)
T1 construct: A 45 μl reaction volume containing full-length USP7 (0.5-1.0 nM)
Assay: Enzymatic assay to determine % inhibition of USP7 activity at 1 μM test compound (Ubiquitin-Rhodamine 110 cleavage)
Format: biochemical
Details: 1 μM of the test compound; given where IC50 has not been determined yet; mean of two repetitions
Experimental: Enzymatic Assay to Determine % Value of Inhibition […] Activity at 1 μM […]
A 45 μl reaction volume containing full-length USP7 (0.5-1.0 nM) in 50 mM HEPES pH 7.5, 150 mM NaCl, 2 mM DTT, 1 mg/ml BSA and 0.05% Tween20 (DUB assay buffer) was assembled in wells of 96 well half area black flat bottom plates. All test compounds were first dissolved to 30 mM stocks in DMSO and subsequently introduced to enzyme 15 min after USP7 incubation with DTT at room temperature. The final concentration of tested compounds was 1 μM. The enzymatic reaction was started by adding 0.5 μM Ubiquitin-Rhodamine 110 (final concentration) and allowed to proceed for 30-60 min at 25° C., 250 RPM shaking before Rhodamine fluorescence (485 nm excitation/535 nm emission) was measured using Tecan Spark M10 plate reader. Percentage of inhibition at 1 μM was determined by the mean of two repetitions for these concentrations using Microsoft Excel software.

T1 sequence (Q93009 whole entry): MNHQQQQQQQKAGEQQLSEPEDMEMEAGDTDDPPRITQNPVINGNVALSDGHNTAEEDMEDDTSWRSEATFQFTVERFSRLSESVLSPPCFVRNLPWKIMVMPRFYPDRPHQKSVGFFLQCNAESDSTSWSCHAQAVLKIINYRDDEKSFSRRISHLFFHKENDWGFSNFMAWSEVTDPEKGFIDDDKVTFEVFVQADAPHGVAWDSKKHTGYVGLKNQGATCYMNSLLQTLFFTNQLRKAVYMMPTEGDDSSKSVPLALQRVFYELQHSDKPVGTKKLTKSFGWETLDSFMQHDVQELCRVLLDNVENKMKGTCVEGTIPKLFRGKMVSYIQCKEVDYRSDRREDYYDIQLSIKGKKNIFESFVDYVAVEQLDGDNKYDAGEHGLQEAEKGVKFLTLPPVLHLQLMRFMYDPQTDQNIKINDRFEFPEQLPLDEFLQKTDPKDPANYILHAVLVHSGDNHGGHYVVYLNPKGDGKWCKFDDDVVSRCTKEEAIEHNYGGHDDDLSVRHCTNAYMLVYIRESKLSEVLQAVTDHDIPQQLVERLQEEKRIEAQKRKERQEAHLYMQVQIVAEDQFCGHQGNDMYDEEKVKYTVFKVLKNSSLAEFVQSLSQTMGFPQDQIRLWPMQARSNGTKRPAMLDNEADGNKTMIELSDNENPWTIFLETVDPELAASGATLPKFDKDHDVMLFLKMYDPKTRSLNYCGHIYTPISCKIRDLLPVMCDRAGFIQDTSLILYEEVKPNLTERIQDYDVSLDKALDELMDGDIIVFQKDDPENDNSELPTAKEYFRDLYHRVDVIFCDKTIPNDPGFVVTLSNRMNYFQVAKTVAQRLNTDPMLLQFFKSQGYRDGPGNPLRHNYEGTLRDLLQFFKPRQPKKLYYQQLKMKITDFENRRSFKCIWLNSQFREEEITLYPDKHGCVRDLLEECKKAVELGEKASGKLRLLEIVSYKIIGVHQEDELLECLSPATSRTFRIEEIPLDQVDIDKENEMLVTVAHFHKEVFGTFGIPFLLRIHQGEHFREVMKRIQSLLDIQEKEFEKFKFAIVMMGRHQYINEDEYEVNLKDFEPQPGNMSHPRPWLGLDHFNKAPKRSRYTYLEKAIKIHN

SMILES | inhibition at 1 µM [%]
CN1CCOC(Cc2c(F)cc(Cl)cc2-c2ncnn3cc(Cn4c(=O)ccn(C)c4=O)cc23)C1 (racemic) [Example 103, 3-((4-(5-chloro-3-fluoro-2-((4-methylmorpholin-2-yl)methyl)phenyl)pyrrolo[2,1-f][1,2,4]triazin-6-yl)methyl)-1-methylpyrimidine-2,4(1H,3H)-dione hydrochloride] | 20 to 49
O=C1CN2CCC[C@H]2C(=O)N1Cc1cc2c(-c3cc(Cl)cc4ccn(C[C@@H]5CNCCO5)c34)ncnn2c1 (single isomer, unassigned) [Example 31, dihydrochloride] | 50 to 70
Cc1cc(Cl)cc(-c2ncnn3cc(CN4C(=O)C5C(C4=O)C5(C)C)cc23)c1CC1CNCC(CF)O1 (single isomer, unassigned) [Example 43, 3-((4-(5-chloro-2-((6-(fluoromethyl)morpholin-2-yl)methyl)-3-methylphenyl)pyrrolo[2,1-f][1,2,4]triazin-6-yl)methyl)-6,6-dimethyl-3-azabicyclo[3.1.0]hexane-2,4-dione hydrochloride] | 20 to 49
Cc1cc(Cl)cc(-c2ncnn3cc(CN4C(=O)C5C(C4=O)C5(C)C)cc23)c1OCC1(C)CCCNC1 (single isomer, unassigned) [Example 74, 3-((4-(5-chloro-3-methyl-2-((3-methylpiperidin-3-yl)methoxy)phenyl)pyrrolo[2,1-f][1,2,4]triazin-6-yl)methyl)-6,6-dimethyl-3-azabicyclo[3.1.0]hexane-2,4-dione hydrochloride] | 50 to 70
Cc1cc(Cl)cc(-c2ncnn3cc(Cn4cc(F)c(=O)n(C)c4=O)cc23)c1C[C@@H]1CNCCO1 (single isomer, unassigned) [Example 98, hydrochloride] | < 20
Cc1cc(Cl)cc(-c2ncnn3cc(CN4C(=O)CN(C)C4=O)cc23)c1C[C@@H]1CNCCO1 (single isomer, unassigned) [Example 99, hydrochloride] | > 70
Cc1cc(Cl)cc(-c2ncnn3cc(Cn4c(=O)ccn(C)c4=O)cc23)c1C[C@H]1CNCCO1 (single isomer, unassigned) [Example 100, hydrochloride] | 20 to 49
C[C@H]1CNCC(Cc2c(F)cc(Cl)cc2-c2ncnn3cc(CN4C(=O)CN(C)CC4=O)cc23)O1 (single isomer, unassigned) [Example 119, hydrochloride] | 20 to 49
C[C@H]1CNCC(Cc2c(F)cc(Cl)cc2-c2ncnn3cc(Cn4c(=O)ccn(C)c4=O)cc23)O1 (single isomer, unassigned) [Example 120, hydrochloride] | > 70

Same assay, conditions: 1 μM of the test compound; given where IC50 has not been determined yet; mean of two repetitions; hydrochloride, 1 µM

SMILES | USP7 % inhibition
Cc1cc(Cl)cc(-c2ncnn3cc(CN4C(=O)C5C(C4=O)C5(C)C)cc23)c1OC(C)C1CCNCC1.Cl (single isomer, unassigned) [Example 56, 3-((4-(5-chloro-3-methyl-2-(1-(piperidin-4-yl)ethoxy)phenyl)pyrrolo[2,1-f][1,2,4]triazin-6-yl)methyl)-6,6-dimethyl-3-azabicyclo[3.1.0]hexane-2,4-dione hydrochloride] | B* (B*: 50-70% inhibition)
Cc1cc(Cl)cc(-c2ncnn3cc(CN4C(=O)C5C(C4=O)C5(C)C)cc23)c1OC(C)C1CCNCC1.Cl (single isomer, unassigned) [Example 57, 3-((4-(5-chloro-3-methyl-2-(1-(piperidin-4-yl)ethoxy)phenyl)pyrrolo[2,1-f][1,2,4]triazin-6-yl)methyl)-6,6-dimethyl-3-azabicyclo[3.1.0]hexane-2,4-dione hydrochloride] | C* (C*: 20-49% inhibition)
Cc1cc(Cl)cc(-c2ncnn3cc(CN4C(=O)C5C(C4=O)C5(C)C)cc23)c1OC(C)[C@@H]1CNCCO1.Cl (single isomer, unassigned) [Example 76] | B* (B*: 50-70% inhibition)
Cc1cc(Cl)cc(-c2ncnn3cc(CN4C(=O)C5C(C4=O)C5(C)C)cc23)c1OC(C)[C@@H]1CNCCO1.Cl (single isomer, unassigned) [Example 77] | D* (D*: <20% inhibition)
